Patent US20250059231A1, “Protease inhibitors” (priority 2021, published 2025)
Entries after “also recorded” stand apart in the source; their conditions may differ. Where a SMILES comes first, the peptide text is derived from it. The star is where a group is joined. Palmitoyl = CCCCCCCCCCCCCCCC(=O)*

What was measured:
[1] = system: Dengue virus 2 (DENV2, ATCC VR-1584); assay: DENV2 infection in AG129 mice: viral load in plasma (plaque assay); type: in vivo; conditions: b.i.d
Protocol: The purpose of this study was to determine the efficacy of the compounds on Dengue virus 2 (DENV2, ATCC® VR-1584™) infection in AG129 mice.
Six groups of AG129 mice, 6-8 weeks old, with 9 mice per group were used to test compounds according to table 3.1.1. Animal room environment was monitored for temperature and relative humidity twice per day. The temperature range was 22° C.±3° C. and humidity range was 30-70%. The animals were provided with 12 hours light and 12 hours darkness. Feed and drinking water was provided ad libitum. Compounds 43 and 113 were tested.
Twenty-four hours post treatment (Day 0), animals were injected intraperitoneally (IP) with 0.2 ml of virus suspension (˜5×10^7/animal).
(§1) Administration of compounds and vehicle to animals started twenty four hours before infection (Day −1). Animals were treated daily (From Day-1 to day 4) as per the experimental design shown below in table 3.1.5. Animals were monitored for general clinical signs, morbidity and mortality. Body weights were measured daily.
Blood was collected on days-1, 0, 1, 2, 3, 4 to 5.
(§2) BHK-21 cells were cultured to approximately 80% confluency in 24-well plates (NUNC, NY, USA). Plasma samples were 10-fold serially diluted in RPMI 1640 (GIBCO). BHK-21 monolayers were infected with 100 μl of each virus dilution. After incubation at 37° C. and 5% CO2 atmosphere for one hour with rocking at 15 min intervals, the medium was decanted and 1 ml of 1% (w/v)carboxymethyl cellulose in RPMI supplemented with 2% FCS was added to each well. After four days incubation at 37° C. in 5% CO2, the cells were fixed with 4% paraformaldehyde and stained for 30 min with […] of 1% crystal violet dissolved in 37% formaldehyde. After thorough rinsing with water, plates were dried and the plaques were scored visually.
(§3) The Mean±SD Log10PFU/ml, relative Mean±SD spleen weight, Mean±SD biomarker concentrations were estimated in each group. Significant differences between group means and control were analyzed by one-way ANOVA, followed by a Dunnett's multiple comparison test, using GraphPad Prism 5 at 95% confidence levels. A p value of <0.05 was considered as significant.

IL-12 = assay: DENV2 infection in AG129 mice: plasma IL-12 (ELISA); type: in vivo; conditions: 10 mg/kg I.P, b.i.d; n = 9; vs vehicle control
Protocol: as §1
Cytokine levels (TNF alpha, IL-6 and IL-12) in plasma samples were measured using Enzyme-Linked Immunosorbent Assay (ELISA). Mouse TNF alpha ELISA Kit (Abcam: ab208348), Mouse IL-6 ELISA Kit (Abcam: ab100712), and Mouse IL-12 p40+IL-12 p70 ELISA Kit (Abcam: ab100699) were used to estimate TNF alpha, IL-6 and IL-12, respectively. The assays were performed according to the manufacturer's instructions and was analysed on a TECAN-NanoQuant Plate™ system.
as §3

dengue virus = assay: In vivo assay using subcutaneous vs intraperitoneal administration, plaque assay in mouse plasma; design: species or system mice; conditions: for therapeutic efficacy by plaque assays in mouse plasma through the treatment period / plaque assay in mouse plasma: 20 mg/kg (5h post infection); for efficacy against dengue virus infection after subcutaneous administration: subcutaneous vs other routes of administration, mice
Protocol: FIG. 5B-viral load (plaque assay) in plasma of mice following treatment with vehicle or with compound 113 (20 mg/kg, b.i.d. IP and SC starting at 5h post-infection). Error bars are Mean±SEM.
as §2
These studies were largely performed as in Example 17, with a difference found in the administration of compounds of the invention. […] In this example the compounds of the invention are administered using subcutaneous administration, and compound 113 was used as exemplary for compounds according to the invention.
Results are shown in the table below, where compounds were used at 20 mg/kg (5h post infection). Antiviral activity is much improved after subcutaneous administration, with a longer lasting effect.

[2] = Tissue distribution (biodistribution) in rats; type: in vivo; conditions: FIG. 5C after intravenous injection
Description: FIG. 5C-tissue distribution after intravenous injection in rats, measured by ratio concentration tissue over plasma.
Following administration, molecules reach the systemic circulation via either the blood capillaries or the lymphatic system.

[3] = Cytotoxicity (method not described); type: cell-based
WNV protease [4] = target: T1, WNV protease (West Nile virus, UniProt P06935); assay: WNV protease assay (analogous procedure); type: biochemical; conditions: read-out: IC50 for WNNV
T1 construct: a trypsin-like serine protease domain in the N-terminal region of the flaviviral NS3 proteins
T1 sequence (P06935 1424-1463): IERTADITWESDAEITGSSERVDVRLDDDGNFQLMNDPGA
T1 sequence (P06935 1502-1679): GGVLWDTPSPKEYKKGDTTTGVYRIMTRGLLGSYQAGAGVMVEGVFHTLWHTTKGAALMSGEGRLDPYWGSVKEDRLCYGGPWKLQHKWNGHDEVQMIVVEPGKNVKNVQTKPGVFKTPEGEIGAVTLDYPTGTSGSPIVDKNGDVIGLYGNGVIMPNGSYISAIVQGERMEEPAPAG

WNV protease [5] = target: T1, WNV protease; assay: WNV protease assay (analogous procedure); type: biochemical; conditions: at 50 μM
Outline: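 Adapted from the DENV protease assay: inhibitors preincubated 15 min with protease (DENV at 100 nM) in 50 mM Tris-HCl pH 9.0, 10% ethylene glycol, 0.0016% Brij 58, then FRET substrate (50 μM final) added.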

human Thrombin = human Thrombin (Homo sapiens, UniProt P00734); assay: Selectivity screening, human serine protease thrombin; type: biochemical; conditions: at 5 μM; read-out: inhibition of human Thrombin
human Trypsin = human Trypsin (Homo sapiens, UniProt P07477); assay: Selectivity screening, human serine protease trypsin; type: biochemical; conditions: read-out: inhibition of human Trypsin
Outline: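 Active candidates were counter-screened for selectivity against the human serine protease trypsin in a biochemical assay similar to the flavivirus protease assay. Cleavage of a substrate by protease activity raises fluorescence, which is read on a microtiter fluorescence plate reader. Compounds are diluted from 10 mM DMSO stocks and tested in triplicate, and inhibition of trypsin is reported.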

| Compound | Mean + SD Log10PFU/ml Plasma ([1]; Day 2, 10 mg/kg I.P) | Mean + SD Log10PFU/ml Plasma ([1]; Day 2, 20 mg/kg I.P) | Mean + SD Log10PFU/ml Plasma ([1]; Day 4, 10 mg/kg I.P) | Mean + SD Log10PFU/ml Plasma ([1]; Day 5, 10 mg/kg I.P) | Mean + SD Log10PFU/ml Plasma ([1]; Day 5, 20 mg/kg I.P) | Plasma concentration of IL-12 in mouse plasma after treatment (IL-12) | therapeutic efficacy by plaque assays in mouse plasma through the treatment period (dengue virus) | plaque assay in mouse plasma (dengue virus; Day 3, IP) | plaque assay in mouse plasma (dengue virus; Day 3, SC) | plaque assay in mouse plasma (dengue virus; Day 4, IP) | plaque assay in mouse plasma (dengue virus; Day 4, SC) | efficacy against dengue virus infection after subcutaneous administration (dengue virus) | tissue distribution, concentration in tissue (liver and spleen) versus plasma [2] | cytotoxicity [3] | EC50 (ZIKV) | IC50 (WNV protease [4]) | inhibition at 50 µM (WNV protease [5]) | inhibition at 5 µM (human Thrombin) | inhibition at 5 µM (human Trypsin; at 5 μM) | inhibition at 25 µM (human Trypsin; at 25 μM) |
| --- | --- | --- | --- | --- | --- | --- | --- | --- | --- | --- | --- | --- | --- | --- | --- | --- | --- | --- | --- | --- |
| CCCCCCCCCCCCCCCC(=O)N[C@@H](CCCCN)CC(=O)N[C@@H](C)C(=O)N[C@@H](C)CC(=O)N[C@H](CCCCN)C(N)=O (stereo in doubt) [compound 113] | 3.79 ± 0.10 Log10PFU/ml | 3.07 ± 0.28 Log10PFU/ml | 4.65 ± 0.08 Log10PFU/ml | 3.66 ± 0.11 Log10PFU/ml | 3.77 ± 0.11 Log10PFU/ml | 81.79 ± 14.30 | good therapeutic efficacy | 4.70 ± 0.75 | 3.58 ± 0.34 | 4.23 ± 0.52 | 3.26 ± 0.49 | great efficacy; also recorded: improved efficacy | could reach the main target sites of dengue | minimal cytotoxicity | ≤ 10 µM | ≤ 40 µM |  |  |  |  |
| CCCCCCCCCCCCCCCC(=O)N[C@@H](CCCNC(=N)N)C(=O)N[C@@H](CCC(N)=O)C(=O)N[C@@H](Cc1ccccc1)C(N)=O [compound 43] (Palmitoyl-Arg-Gln-Phe-NH2) | 3.36 ± 0.41 Log10PFU/ml | 3.48 ± 0.25 Log10PFU/ml |  | 3.28 ± 0.21 Log10PFU/ml | 3.06 ± 0.31 Log10PFU/ml |  | good therapeutic efficacy | 4.32 ± 0.45 | 3.43 ± 0.304 | 4.38 ± 0.41 | 3.34 ± 0.40 | great efficacy |  |  |  | ≤ 40 µM | ≥ 25% | < 5% | < 10% | < 20% |
